Laboratory results taken from publication PMC11497069, “Novel Arf1 Inhibitors Drive Cancer Stem Cell Aging and Potentiate Anti‐Tumor Immunity” (Advanced Science, 2024).

Molecular target: T1, Arf1 (Homo sapiens, UniProt P84077)
T1 construct: endogenous Arf1 in Huh7 cells, active form pulled down with GGA3 and detected with anti-Arf1 antibody
Experiment: GGA3 pull-down of active Arf1, western blot
Type: cell-based
Settings: Huh7 cells; GBF1-dependent Arf1 activation

T1 sequence (P84077 2-181): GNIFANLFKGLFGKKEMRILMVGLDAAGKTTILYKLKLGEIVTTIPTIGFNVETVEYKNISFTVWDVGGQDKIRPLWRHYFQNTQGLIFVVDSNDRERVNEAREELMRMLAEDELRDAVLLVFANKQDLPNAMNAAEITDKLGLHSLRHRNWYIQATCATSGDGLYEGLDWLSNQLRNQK

C(=N\Nc1ncnc2sc3c(c12)CCCCCC3)/c1ccc2[nH]ccc2c1 [DU102]
GGA3 pull-down of active Arf1, western blot: DU101 or DU102 treatment significantly inhibited Arf1 activity

C(=N\Nc1ncnc2sc3c(c12)CCCC3)/c1ccc2[nH]ccc2c1 [DU101]
GGA3 pull-down of active Arf1, western blot: DU101 or DU102 treatment significantly inhibited Arf1 activity
